In patent US10472341B2, “Bicyclic tetrahydrothiazepine derivatives useful for the treatment of neoplastic and/or infectious diseases” (APEIRON BIOLOGICS AG, priority 2015, dated 2019):
Where a name gives a salt, the structure may show the parent alone. Read-outs that look alike come from different tables or passages of the source.

Experiments:
[1] = system: aCD3/aCD28-stimulated human PBMCs; experiment: Cytokine production in aCD3/aCD28 stimulated human PBMCs; type: cell-based; settings: PBMC, 18 h
How it was run: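 Ficoll-isolated human PBMCs at 1e6 cells/mL in X-Vivo15, stimulated with soluble anti-CD3/CD28 (OKT3 and 28.2, 1 μg/mL each) plus compound for 18 h at 37° C. Supernatant cytokines quantified by MSD or HTRF.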

[2] = system: aCD3/aCD28-stimulated human CD4+-T-cells; experiment: IL-2 production and activation markers in aCD3/aCD28 stimulated isolated human CD4+-T-cells; type: cell-based; settings: IL-2 production at 3 μM compound
How it was run: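 CD4+ T cells isolated from buffy-coat PBMCs by microbeads were plated in Xvivo medium (1.5*10^5 cells/well) and stimulated with anti-CD3/28 mAbs plus compound. IL-2 measured by ELISA in supernatants at 24 h or 48 h; CD25 and proliferation by flow cytometry, CD69 at 24 h. Activity classes based on IL-2 at 3 μM compound.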

[3] = enhancement of IFN-γ production, read-out: Activity Class IFN-γ
[4] = enhancement of IL-2 production, read-out: Activity Class IL-2

For `Cl.N[C@H]1CS(=O)(=O)c2cc(F)c(C(=O)N[C@H]3C[C@@H]3c3ccccc3)cc2N(Cc2ccc(Cl)cc2)C1=O` [Example 98, (3R)-3-amino-5-[(4-chlorophenyl)methyl]-8-fluoro-1,1,4-trioxo-N-[(1S,2R)-2-phenylcyclopropyl]-2,3,4,5-tetrahydro-1λ^6,5-benzothiazepine-7-carboxamide hydrochloride], which EC50 [1, 3] is on record?
The EC50 was < 1580 nM.

What about the EC50 [1, 4] of the same compound?
Its EC50 is < 1580 nM.

What about the “Activity Class CD4+” value [2] of the same compound?
The value was “A (IL-2 production at 3 μM compound concentration >10 ng/mL)”.

`CC1(NC(=O)c2cc3c(cc2F)S(=O)(=O)C[C@H](N)C(=O)N3Cc2ccc(Cl)cc2)CC1.Cl` [Example 99, (3R)-3-amino-5-[(4-chlorophenyl)methyl]-8-fluoro-N-(1-methylcyclopropyl)-1,1,4-trioxo-2,3,4,5-tetrahydro-1λ^6,5-benzothiazepine-7-carboxamide hydrochloride] was tested. Which EC50 [1, 3] did it give?
The EC50 was 1580 to 5010 nM.

And the EC50 [1, 4]?
The EC50 was 1580 to 5010 nM.

And the “Activity Class CD4+” value [2]?
Its value is “B (IL-2 production at 3 μM compound concentration between 2-10 ng/mL)”.

How did the EC50 [1, 3] turn out when `CC1(NC(=O)c2cc3c(cc2F)S(=O)(=O)C[C@H](N)C(=O)N3Cc2ccc(Cl)cc2)CCC1.Cl` [Example 100, (3R)-3-amino-5-[(4-chlorophenyl)methyl]-8-fluoro-N-(1-methylcyclobutyl)-1,1,4-trioxo-2,3,4,5-tetrahydro-1λ^6,5-benzothiazepine-7-carboxamide hydrochloride] was run?
Its EC50 is < 1580 nM.

And the EC50 [1, 4]?
Its EC50 is < 1580 nM.

What about the “Activity Class CD4+” value [2] of the same compound?
The value was “A (IL-2 production at 3 μM compound concentration >10 ng/mL)”.

Which EC50 [1, 3] does the source give for `CC1(C)CC1NC(=O)c1cc2c(cc1F)S(=O)(=O)C[C@H](N)C(=O)N2Cc1ccc(Cl)cc1.Cl` (stereo partly drawn) [Example 101, (3R)-3-amino-5-[(4-chlorophenyl)methyl]-N-(2,2-dimethylcyclopropyl)-8-fluoro-1,1,4-trioxo-2,3,4,5-tetrahydro-1λ^6,5-benzothiazepine-7-carboxamide hydrochloride] here?
Its EC50 is < 1580 nM.

What about the EC50 [1, 4] of the same compound?
The EC50 was 1580 to 5010 nM.

What about the “Activity Class CD4+” value [2] of the same compound?
The value was “B (IL-2 production at 3 μM compound concentration between 2-10 ng/mL)”.

With `Cl.N[C@H]1CS(=O)(=O)c2cc(F)c(C(=O)NC3CC(F)(F)C3)cc2N(Cc2ccc(Cl)cc2)C1=O` [Example 102, (3R)-3-amino-5-[(4-chlorophenyl)methyl]-N-(3,3-difluorocyclobutyl)-8-fluoro-1,1,4-trioxo-2,3,4,5-tetrahydro-1λ^6,5-benzothiazepine-7-carboxamide hydrochloride] as the compound, how does the EC50 [1, 3] read?
Its EC50 is < 1580 nM.

And the EC50 [1, 4]?
The EC50 was < 1580 nM.

And the “Activity Class CD4+” value [2]?
Its value is “A (IL-2 production at 3 μM compound concentration >10 ng/mL)”.

How did the EC50 [1, 3] turn out when `Cl.N[C@H]1CS(=O)(=O)c2cc(F)c(C(=O)NCc3ccccc3)cc2N(Cc2ccc(Cl)cc2)C1=O` [Example 103, (3R)-3-amino-N-benzyl-5-[(4-chlorophenyl)methyl]-8-fluoro-1,1,4-trioxo-2,3,4,5-tetrahydro-1λ^6,5-benzothiazepine-7-carboxamide hydrochloride] was run?
Its EC50 is < 1580 nM.

And the EC50 [1, 4]?
The EC50 was < 1580 nM.

And the “Activity Class CD4+” value [2]?
Its value is “A (IL-2 production at 3 μM compound concentration >10 ng/mL)”.

For `CCCCCCCNC(=O)c1cc2c(cc1F)S(=O)(=O)C[C@H](N)C(=O)N2Cc1ccc(Cl)cc1.Cl` [Example 104, (3R)-3-amino-5-[(4-chlorophenyl)methyl]-8-fluoro-N-heptyl-1,1,4-trioxo-2,3,4,5-tetrahydro-1λ^6,5-benzothiazepine-7-carboxamide hydrochloride], which EC50 [1, 3] is on record?
Its EC50 is < 1580 nM.

What about the EC50 [1, 4] of the same compound?
Its EC50 is < 1580 nM.

And the “Activity Class CD4+” value [2]?
Its value is “A (IL-2 production at 3 μM compound concentration >10 ng/mL)”.

With `C[C@@H]1[C@H](N)C(=O)N(Cc2ccc(Cl)cc2)c2cc(C(=O)NC3CC3(F)F)ccc2S1(=O)=O.Cl` (stereo partly drawn) [Example 108, (2R,3R)-3-amino-5-[(4-chlorophenyl)methyl]-N-(2,2-difluorocyclopropyl)-2-methyl-1,1,4-trioxo-2,3,4,5-tetrahydro-1λ^6,5-benzothiazepine-7-carboxamide hydrochloride] as the compound, how does the EC50 [1, 3] read?
The EC50 was > 5010 nM.

And the EC50 [1, 4]?
Its EC50 is > 5010 nM.

And the “Activity Class CD4+” value [2]?
Its value is “C (IL-2 production at 3 μM compound concentration between 2-fold increase as compared to mean IL-2 production of stimulated cells in the absence of compounds and <2 ng/mL)”.

`CCCCCCCCCCCCCCCCNC(=O)c1cc2c(cc1F)S(=O)(=O)C[C@H](N)C(=O)N2Cc1ccc(Cl)cc1.Cl` [Example 109, (3R)-3-amino-5-[(4-chlorophenyl)methyl]-8-fluoro-N-hexadecyl-1,1,4-trioxo-2,3,4,5-tetrahydro-1λ^6,5-benzothiazepine-7-carboxamide hydrochloride] was tested. Which EC50 [1, 3] did it give?
The EC50 was < 1580 nM.

What about the EC50 [1, 4] of the same compound?
The EC50 was < 1580 nM.

What about the “Activity Class CD4+” value [2] of the same compound?
The value was “A (IL-2 production at 3 μM compound concentration >10 ng/mL)”.

What does the source list for `Cl.N[C@H]1CS(=O)(=O)c2cc(F)c(C(=O)NCC3CC3)cc2N(Cc2ccc(Cl)cc2)C1=O` [Example 110, (3R)-3-amino-5-[(4-chlorophenyl)methyl]-N-(cyclopropylmethyl)-8-fluoro-1,1,4-trioxo-2,3,4,5-tetrahydro-1λ^6,5-benzothiazepine-7-carboxamide hydrochloride]?
EC50 [1, 3]: < 1580 nM; EC50 [1, 4]: < 1580 nM; Activity Class CD4+ [2]: A (IL-2 production at 3 μM compound concentration >10 ng/mL)

Which EC50 [1, 3] does the source give for `C[C@@H]1[C@H](N)C(=O)N(Cc2ccc(Cl)cc2)c2cc(C(=O)NCCCC(F)(F)F)ccc2S1(=O)=O.Cl` [Example 111, (2R,3R)-3-amino-5-[(4-chlorophenyl)methyl]-2-methyl-1,1,4-trioxo-N-(4,4,4-trifluorobutyl)-2,3,4,5-tetrahydro-1λ^6,5-benzothiazepine-7-carboxamide hydrochloride] here?
The EC50 was 1580 to 5010 nM.

What about the EC50 [1, 4] of the same compound?
The EC50 was 1580 to 5010 nM.

What about the “Activity Class CD4+” value [2] of the same compound?
The value was “B (IL-2 production at 3 μM compound concentration between 2-10 ng/mL)”.

What does the source list for `Cl.N[C@H]1CSc2cc(F)c(C(=O)NCc3ccc(F)cc3)cc2N(Cc2nnc(C3CC3)s2)C1=O` [Example 113, (3R)-3-amino-5-[(5-cyclopropyl-1,3,4-thiadiazol-2-yl)methyl]-8-fluoro-N-[(4-fluorophenyl)methyl]-4-oxo-2,3,4,5-tetrahydro-1,5-benzothiazepine-7-carboxamide hydrochloride]?
EC50 [1, 3]: 1580 to 5010 nM; EC50 [1, 4]: > 5010 nM; Activity Class CD4+ [2]: C (IL-2 production at 3 μM compound concentration between 2-fold increase as compared to mean IL-2 production of stimulated cells in the absence of compounds and <2 ng/mL)

Which EC50 [1, 3] does the source give for `CCCCNC(=O)c1cc2c(cc1N(C)C)S(=O)(=O)C[C@H](N)C(=O)N2Cc1ccc(Cl)cc1` [Example 114, (3R)-3-amino-N-butyl-5-[(4-chlorophenyl)methyl]-8-(dimethylamino)-1,1,4-trioxo-2,3,4,5-tetrahydro-1 λ^6,5-benzothiazepine-7-carboxamide hydrochloride] here?
Its EC50 is 1580 to 5010 nM.

And the EC50 [1, 4]?
Its EC50 is > 5010 nM.

And the “Activity Class CD4+” value [2]?
The value was “C (IL-2 production at 3 μM compound concentration between 2-fold increase as compared to mean IL-2 production of stimulated cells in the absence of compounds and <2 ng/mL)”.

`CCCCNC(=O)c1cc2c(cn1)S(=O)(=O)C[C@H](N)C(=O)N2Cc1ccc(Cl)cc1` [Example 183, (3R)-3-amino-N-butyl-1-[(4-chlorophenyl)methyl]-2,5,5-trioxo-1H,2H,3H,4H-5λ^6-pyrido[3,4-b][1,4]thiazepine-8-carboxamide hydrochloride] was tested. Which EC50 [1, 3] did it give?
Its EC50 is > 5010 nM.

And the EC50 [1, 4]?
The EC50 was > 5010 nM.

What about the “Activity Class CD4+” value [2] of the same compound?
Its value is “C (IL-2 production at 3 μM compound concentration between 2-fold increase as compared to mean IL-2 production of stimulated cells in the absence of compounds and <2 ng/mL)”.
